Experimental findings from PubChem BioAssay (NCI) are described below.

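These data come from cells grown in 96-well plates and exposed to compound for 48 hours at five concentrations. TGI marks complete inhibition of growth.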

Test systems include HL-60(TB) leukemia; SK-OV-3 ovarian; MDA-MB-231 breast; IGROV1 ovarian; HS 578T breast; HCC-2998 colon; NCI-H23 lung; T-47D breast.
What all share (assay): inhibition of tumour cell growth, NCI panel, 48 h

Turning to `O=C1O[C@H](c2ccc3c(c2)OCO3)[C@H]2CO[C@@H](c3ccc4c(c3)OCO4)[C@@H]12`, the TGI with HL-60(TB) leukemia, in the experiment with SK-OV-3 ovarian, in the experiment on MDA-MB-231 breast, in the experiment with IGROV1 ovarian, in the experiment on HS 578T breast and with HCC-2998 colon was > 100 µM in each case. Also, the TGI with NCI-H23 lung is > 100 µM.

As for `CN1[C@@H]2C[C@@H](OC(=O)[C@H](CO)c3ccccc3)C[C@H]1[C@@H]1O[C@@H]12`, the TGI in the experiment with T-47D breast, in the experiment on SK-OV-3 ovarian, with MDA-MB-231 breast, in the experiment with IGROV1 ovarian, in the experiment on HS 578T breast and in the experiment with NCI-H23 lung was > 100 µM throughout.

Take `CCOC(=O)NC(Nc1ccc([N+](=O)[O-])cc1)(C(F)(F)F)C(F)(F)F`: the TGI in the experiment with HL-60(TB) leukemia, with T-47D breast, with SK-OV-3 ovarian, in the experiment on MDA-MB-231 breast, in the experiment on IGROV1 ovarian and in the experiment with HS 578T breast was > 100 µM each time. Further, the TGI in the experiment on HCC-2998 colon and in the experiment with NCI-H23 lung was > 100 µM each time.

As for `COc1cccc(/C=N/n2c(C)n[nH]c2=O)c1`, the TGI was > 100 µM in the experiment with T-47D breast; > 100 µM in the experiment on SK-OV-3 ovarian; > 100 µM in the experiment on MDA-MB-231 breast; 43.8 µM in the experiment on HS 578T breast; > 100 µM in the experiment on HCC-2998 colon; > 100 µM in the experiment on NCI-H23 lung.

In the case of `Nc1nc(Cl)cc(NCC2(CO)CCCC2)n1`, the TGI in the experiment on HL-60(TB) leukemia, in the experiment on T-47D breast, with SK-OV-3 ovarian, in the experiment on MDA-MB-231 breast, in the experiment with IGROV1 ovarian and in the experiment with HS 578T breast was > 100 µM in each case. In addition, the TGI in the experiment on HCC-2998 colon and in the experiment on NCI-H23 lung was > 100 µM throughout.

For the compound `CC(C)CC(O)P(=O)(O)O` (stereo not drawn), the TGI in the experiment with HL-60(TB) leukemia, in the experiment on T-47D breast, with SK-OV-3 ovarian, in the experiment on MDA-MB-231 breast and in the experiment with HCC-2998 colon was > 100 µM each time.

Take `CC1=NNC(=O)C1C(CC(=O)c1c[nH]c2ccccc12)C(=O)O` (stereo not drawn): the TGI with HL-60(TB) leukemia, in the experiment with T-47D breast, with SK-OV-3 ovarian, in the experiment on MDA-MB-231 breast, with IGROV1 ovarian and in the experiment on HS 578T breast was > 100 µM each time. In addition, the TGI in the experiment on NCI-H23 lung was > 100 µM.

For `Cc1ccc(O)c(-c2cscn2)c1`, the TGI in the experiment with HL-60(TB) leukemia was 22.2 µM; in the experiment on SK-OV-3 ovarian it was > 100 µM; with IGROV1 ovarian it was > 100 µM; in the experiment on HS 578T breast it was > 100 µM; in the experiment on HCC-2998 colon it was > 100 µM; in the experiment on NCI-H23 lung, > 100 µM.

`C=C1C(=O)C=C[C@]2(C)CC[C@H]3C(=C)C(=O)O[C@@H]3[C@@H]12`: the TGI with HL-60(TB) leukemia came to 14.4 µM; in the experiment on T-47D breast it was 20.7 µM; in the experiment with SK-OV-3 ovarian, 21.2 µM; in the experiment on MDA-MB-231 breast it was 11.7 µM; with IGROV1 ovarian, 4.28 µM; in the experiment with HS 578T breast, 48.8 µM. The TGI in the experiment with NCI-H23 lung came out at 9.61 µM.

In the case of `CC(C)(Cl)C(Br)CCC(=CCCl)CBr` (mixture of isomers), the TGI amounted to 2.6 µM with HL-60(TB) leukemia; 31.2 µM in the experiment with SK-OV-3 ovarian; 3.5 µM with MDA-MB-231 breast; 6.73 µM in the experiment with IGROV1 ovarian; 16.4 µM in the experiment with HS 578T breast; 4.22 µM with HCC-2998 colon. The compound further yielded a TGI in the experiment on NCI-H23 lung of 4.28 µM.

Consider `Cc1cc(S(=O)(=O)Nc2nc3cc(-c4ccc(Cl)cc4)sc3c(=O)n2N)c(S)cc1Cl`, for which the TGI with T-47D breast, with SK-OV-3 ovarian, in the experiment with MDA-MB-231 breast, in the experiment on IGROV1 ovarian, in the experiment on HS 578T breast and in the experiment with HCC-2998 colon was > 100 µM in each case. In addition, the TGI in the experiment on NCI-H23 lung was > 100 µM.

Consider `C=C(Cl)C(C)(Cl)CCC(Br)C(C)(C)Cl` (stereo not drawn), for which the TGI in the experiment on HL-60(TB) leukemia is > 100 µM; in the experiment with SK-OV-3 ovarian it was 39.2 µM; with MDA-MB-231 breast, 28.7 µM; in the experiment on IGROV1 ovarian, 90.9 µM; in the experiment with HS 578T breast it was 57.8 µM; in the experiment on HCC-2998 colon, 34.2 µM. Besides, the TGI in the experiment on NCI-H23 lung is 50.7 µM.

In the case of `CSc1ncnc2c1ncn2CCC#N`, the TGI in the experiment on HL-60(TB) leukemia, in the experiment with SK-OV-3 ovarian, in the experiment on MDA-MB-231 breast, with IGROV1 ovarian, with HS 578T breast and in the experiment on NCI-H23 lung was > 100 µM throughout.

As for `Oc1cccc(-c2nc3cc(F)ccc3s2)c1`, the TGI in the experiment with HL-60(TB) leukemia was 61 µM; in the experiment on T-47D breast, 14.2 µM; in the experiment on SK-OV-3 ovarian, 70 µM; in the experiment on MDA-MB-231 breast, 51.6 µM; with IGROV1 ovarian, 33.1 µM; in the experiment with HCC-2998 colon, 23.2 µM. Besides, in the experiment with NCI-H23 lung, the TGI came out at 70.7 µM.

In the case of `S=C(Nc1ccc2c(c1)oc1ccccc12)c1cccnc1`, the TGI is > 100 µM in the experiment on T-47D breast; 40.7 µM in the experiment with SK-OV-3 ovarian; > 100 µM in the experiment on MDA-MB-231 breast; > 100 µM in the experiment on IGROV1 ovarian; > 100 µM in the experiment with HCC-2998 colon; > 100 µM in the experiment on NCI-H23 lung.

On to `CCC(=O)ONC(=O)Cn1ccc([N+](=O)[O-])n1`, for which the TGI in the experiment on HL-60(TB) leukemia, with SK-OV-3 ovarian, in the experiment on MDA-MB-231 breast, with IGROV1 ovarian, in the experiment with HS 578T breast and with HCC-2998 colon was > 100 µM each time. For the same compound, the TGI in the experiment on NCI-H23 lung is > 100 µM.

For the compound `Cn1c2ccccc2c(=O)c2cccc(C(=O)NC(CCCN=C(N)N)C(=O)O)c21` (stereo not drawn), the TGI in the experiment with T-47D breast, in the experiment with SK-OV-3 ovarian, with MDA-MB-231 breast, in the experiment on IGROV1 ovarian, with HS 578T breast and in the experiment on HCC-2998 colon was > 100 µM each time. For the same compound, the TGI in the experiment on NCI-H23 lung was > 100 µM.

For `Cc1ccc(S(=O)(=O)NC(=O)N[C@@H](Cc2cnc[nH]2)C(=O)O)cc1`, the TGI in the experiment with HL-60(TB) leukemia, in the experiment on T-47D breast, with SK-OV-3 ovarian, in the experiment on MDA-MB-231 breast, with IGROV1 ovarian and with HS 578T breast was > 100 µM each time. In addition, in the experiment on NCI-H23 lung, the TGI is > 100 µM.

As to `Cc1nc2sc3ccccc3n2c(=O)c1N=Nc1ccc(Cl)cc1`, the TGI in the experiment on HL-60(TB) leukemia, in the experiment on T-47D breast, with SK-OV-3 ovarian, with MDA-MB-231 breast, in the experiment with IGROV1 ovarian and in the experiment with HS 578T breast was > 100 µM throughout. Moreover, in the experiment on NCI-H23 lung, the TGI was > 100 µM.
